Reference: patent publication US6573218B1, “Fused-benzene derivatives useful as herbicides” (Ishihara Sangyo Kaisha, Ltd., priority 1998, dated 2003)

Assays:
Format in all cases: in vivo
[1] = tested on: barnyardgrass (Echinochloa crus-galli, ECHCG); test: Pre-emerge greenhouse herbicide test; details: 250 g ai/ha, 14 days after application, scale 0-100 (0 no damage, 100 complete death)
Excerpt: (§1) A standard greenhouse herbicide activity screening system was used to evaluate the herbicidal efficacy and crop safety of these test compounds. Seven broadleaf weed species including redroot pigweed (Amaranthus retroflexus, AMARE), velvetleaf (Abutilon theophrasti, ABUTH), sicklepod (Cassia obtusifolia, CASOB), ivyleaf morningglory (Ipomoea hederacea, IPOHE), lambsquarters (Chenopodium album, CHEAL), common ragweed (Ambrosia artemisiifolia L., AMBEL), and cocklebur (Xanthium strumarium, XANST) were used as test species. Four grass weed species including green foxtail (Setaria viridis, SETVI), barnyardgrass (Echinochloa crus-galli, ECHCG), johnsongrass (Sorghum halepense, SORHA), and large crabgrass (Digitaria sanguinalis, DIGSA) were also used. In addition, three crop species, field corn (Zea mays L., var. Dekalb 527, CORN), soybean (Glycine max L., var. Pella 86, SOY), and upland rice (Ory0a sp., var.Tebonnet, RICE) were included.
(§2) All plants were grown in 10 cm square plastic pots which were filled with a sandy loam soil mix. For pre-emerge tests, seeds were planted one day prior to application of the test compounds. For post-emerge tests, seeds were planted 8-21 days prior to the test to allow emergence and good foliage development prior to application of the test substances. At the time of the post-emerge application, plants of all species were usually at the 2-3 leaf stage of development.
(§3) All test compounds were dissolved in acetone and applied to the test units in a volume of 187 l/ha. Test materials were applied at rates ranging from 15 g ai/ha to 1000 g ai/ha using a track sprayer equipped with a TJ8001E even flow flat fan spray nozzle. Plants were arranged on a shelf so that the top of the canopy (post-emerge) or top of the soil surface (pre-emerge) was 40-45 cm below the nozzle. Pressurized air was used to force the test solution through the nozzle as it was mechanically advanced over the top of all test plants/pots. This application simulates a typical commercial field herbicide application.
(§4) In the post-emerge test, a commercial non-ionic surfactant was also included (0.25% v/v) to enhance wetting of the leaf surfaces of target plants. Immediately after application, test units of the pre-emerge applications were watered at the soil surface to incorporate the test materials.
(§5) At 14 days after application of the test materials, phytotoxicity ratings were recorded. A rating scale of 0-100 was used as previously described in Research Methods in Weed Science, 2nd edition, B. Truelove, Ed., Southern Weed Science Society, Auburn University, Auburn, Ala., 1977. Briefly, “0” corresponds to no damage and “100” corresponds to complete death of all plants in the test unit. This scale was used both to determine efficacy against weed species and damage to crop species. Herbicide activity data for various compounds of this invention, which are shown by compound No. in Tables 1-14, are shown in Tables 16 and 17.

[2] = tested on: green foxtail (Setaria viridis, SETVI); test: Pre-emerge greenhouse herbicide test; details: 250 g ai/ha, 14 days after application, scale 0-100 (0 no damage, 100 complete death)
Excerpt: as §1, §2, §3, §4, §5

[3] = tested on: ivyleaf morningglory (Ipomoea hederacea, IPOHE); test: Pre-emerge greenhouse herbicide test; details: 250 g ai/ha, 14 days after application, scale 0-100 (0 no damage, 100 complete death)
Excerpt: as §1, §2, §3, §4, §5

[4] = tested on: lambsquarters (Chenopodium album, CHEAL); test: Pre-emerge greenhouse herbicide test; details: 250 g ai/ha, 14 days after application, scale 0-100 (0 no damage, 100 complete death)
Excerpt: as §1, §2, §3, §4, §5

[5] = tested on: large crabgrass (Digitaria sanguinalis, DIGSA); test: Pre-emerge greenhouse herbicide test; details: 250 g ai/ha, 14 days after application, scale 0-100 (0 no damage, 100 complete death)
Excerpt: as §1, §2, §3, §4, §5

[6] = tested on: redroot pigweed (Amaranthus retroflexus, AMARE); test: Pre-emerge greenhouse herbicide test; details: 250 g ai/ha, 14 days after application, scale 0-100 (0 no damage, 100 complete death)
Excerpt: as §1, §2, §3, §4, §5

[7] = tested on: sicklepod (Cassia obtusifolia, CASOB); test: Pre-emerge greenhouse herbicide test; details: 250 g ai/ha, 14 days after application, scale 0-100 (0 no damage, 100 complete death)
Excerpt: as §1, §2, §3, §4, §5

[8] = tested on: velvetleaf (Abutilon theophrasti, ABUTH); test: Pre-emerge greenhouse herbicide test; details: 250 g ai/ha, 14 days after application, scale 0-100 (0 no damage, 100 complete death)
Excerpt: as §1, §2, §3, §4, §5

[9] = tested on: field corn (Zea mays L., var. Dekalb 527, CORN); test: Pre-emerge greenhouse crop damage test; details: pre-emerge, 250 g ai/ha, 14 days after application, scale 0-100 (0 no damage, 100 complete death)
Excerpt: as §1, §2, §3, §4, §5

[10] = tested on: soybean (Glycine max L., var. Pella 86, SOY); test: Pre-emerge greenhouse crop damage test; details: pre-emerge, 250 g ai/ha, 14 days after application, scale 0-100 (0 no damage, 100 complete death)
Excerpt: as §1, §2, §3, §4, §5

[11] = tested on: upland rice (Ory0a sp., var.Tebonnet, RICE); test: Pre-emerge greenhouse crop damage test
Excerpt: as §1, §2, §3, §4, §5

[12] = tested on: barnyardgrass (Echinochloa crus-galli, ECHCG); test: Post-emerge greenhouse herbicide test; details: 250 g ai/ha, 14 days after application
Excerpt: as §1, §2, §3, §4, §5

[13] = tested on: green foxtail (Setaria viridis, SETVI); test: Post-emerge greenhouse herbicide test; details: 250 g ai/ha, 14 days after application
Excerpt: as §1, §2, §3, §4, §5

[14] = tested on: ivyleaf morningglory (Ipomoea hederacea, IPOHE); test: Post-emerge greenhouse herbicide test; details: 250 g ai/ha, 14 days after application
Excerpt: as §1, §2, §3, §4, §5

[15] = tested on: johnsongrass (Sorghum halepense, SORHA); test: Post-emerge greenhouse herbicide test; details: 250 g ai/ha, 14 days after application
Excerpt: as §1, §2, §3, §4, §5

[16] = tested on: lambsquarters (Chenopodium album, CHEAL); test: Post-emerge greenhouse herbicide test; details: 250 g ai/ha, 14 days after application
Excerpt: as §1, §2, §3, §4, §5

[17] = tested on: large crabgrass (Digitaria sanguinalis, DIGSA); test: Post-emerge greenhouse herbicide test; details: 250 g ai/ha, 14 days after application
Excerpt: as §1, §2, §3, §4, §5

[18] = tested on: redroot pigweed (Amaranthus retroflexus, AMARE); test: Post-emerge greenhouse herbicide test; details: 250 g ai/ha, 14 days after application
Excerpt: as §1, §2, §3, §4, §5

[19] = tested on: sicklepod (Cassia obtusifolia, CASOB); test: Post-emerge greenhouse herbicide test; details: 250 g ai/ha, 14 days after application
Excerpt: as §1, §2, §3, §4, §5

[20] = tested on: velvetleaf (Abutilon theophrasti, ABUTH); test: Post-emerge greenhouse herbicide test; details: 250 g ai/ha, 14 days after application
Excerpt: as §1, §2, §3, §4, §5

[21] = tested on: field corn (Zea mays L., var. Dekalb 527, CORN); test: Post-emerge greenhouse crop damage test; details: 250 g ai/ha, post-emerge, 14 days after application
Excerpt: as §1, §2, §3, §4, §5

[22] = tested on: soybean (Glycine max L., var. Pella 86, SOY); test: Post-emerge greenhouse crop damage test
Excerpt: as §1, §2, §3, §4, §5

[23] = tested on: upland rice (Ory0a sp., var.Tebonnet, RICE); test: Post-emerge greenhouse crop damage test; details: 250 g ai/ha, post-emerge, 14 days after application
Excerpt: as §1, §2, §3, §4, §5

[24] = tested on: johnsongrass (Sorghum halepense, SORHA); test: Pre-emerge greenhouse herbicide test; details: 250 g ai/ha, 14 days after application, scale 0-100 (0 no damage, 100 complete death)
Excerpt: as §1, §2, §3, §4, §5

| SMILES | Pre-emerge Herbicidal Activity ECHCG (phytotoxicity rating) [1] | Pre-emerge Herbicidal Activity SETVI (phytotoxicity rating) [2] | Pre-emerge Herbicidal Activity IPOHE (phytotoxicity rating) [3] | Pre-emerge Herbicidal Activity CHEAL (phytotoxicity rating) [4] | Pre-emerge Herbicidal Activity DIGSA (phytotoxicity rating) [5] | Pre-emerge Herbicidal Activity AMARE (phytotoxicity rating) [6] | Pre-emerge Herbicidal Activity CASOB (phytotoxicity rating) [7] | Pre-emerge Herbicidal Activity ABUTH (phytotoxicity rating) [8] | Pre-emerge Herbicidal Activity CORN (crop damage rating) [9] | Pre-emerge Herbicidal Activity SOY (crop damage rating) [10] | Post-emerge Herbicidal Activity ECHCG (phytotoxicity rating 0-100) [12] | Post-emerge Herbicidal Activity SETVI (phytotoxicity rating 0-100) [13] | Post-emerge Herbicidal Activity IPOHE (phytotoxicity rating 0-100) [14] | Post-emerge Herbicidal Activity CHEAL (phytotoxicity rating 0-100) [16] | Post-emerge Herbicidal Activity DIGSA (phytotoxicity rating 0-100) [17] | Post-emerge Herbicidal Activity AMARE (phytotoxicity rating 0-100) [18] | Post-emerge Herbicidal Activity CASOB (phytotoxicity rating 0-100) [19] | Post-emerge Herbicidal Activity ABUTH (phytotoxicity rating 0-100) [20] | Post-emerge crop damage CORN (phytotoxicity rating 0-100) [21] | Post-emerge crop damage RICE (phytotoxicity rating 0-100) [23] | further results |
| --- | --- | --- | --- | --- | --- | --- | --- | --- | --- | --- | --- | --- | --- | --- | --- | --- | --- | --- | --- | --- | --- |
| CCc1nc2c(N3C(=O)C4CCCCN4C3=S)c(F)cc(Cl)c2o1 (single isomer, unassigned) [Compound 7-5, 8-(7-Chloro-2-ethyl-5-fluorobenzoxazol-4-yl)-1,8-diazobicyclo[4,3,0]nonane-7-one-9-thione] | 0 | 0 | 0 | 60 | 0 | 50 | 0 | 30 | 0 | 0 | 0 | 60 | 100 | 100 | 10 | 100 | 100 | 100 | 20 | 10 | Pre-emerge Herbicidal Activity RICE (crop damage rating) ([11]; pre-emerge, 250 g ai/ha, 14 days after application, scale 0-100 (0 no damage, 100 complete death)): 0; Post-emerge Herbicidal Activity SORHA (phytotoxicity rating 0-100) [15]: 0; Post-emerge crop damage SOY (phytotoxicity rating 0-100) ([22]; in vivo): 80 |
| Nn1c(C(F)(F)F)cc(=O)n(-c2c(F)cc(Cl)c3c2NC(=O)CO3)c1=O [Compound 4-2] | 80 | 80 | 100 | 100 | 70 | 100 | 100 | 100 | 100 | 95 | 60 | 40 | 100 | 100 | 20 | 100 | 90 | 100 | 90 | 90 | Pre-emerge Herbicidal Activity SORHA (phytotoxicity rating) [24]: 65; Pre-emerge Herbicidal Activity RICE (crop damage rating) ([11]; in vivo): 90; Post-emerge crop damage SOY (phytotoxicity rating 0-100) ([22]; 250 g ai/ha, post-emerge, 14 days after application): 100 |
